From patent US6630157B1, “Therapeutic and dietary compositions containing essential fatty acids and bioactive disulphides” (Viatris GmbH & Co. KG., priority 1997, dated 2003)
“Also recorded” adds a separate entry of the source.

Experiments:
[1] = system: plasma phospholipids; assay: fatty acid levels in plasma phospholipids of rats fed GLA, EPA or DHA with or without anti-oxidant; format: in vivo, rat; conditions: fatty acid (GLA, EPA or DHA) 0.1% by weight in food plus 0.1% by weight anti-oxidant, two weeks, preliminary experiments
Protocol: (§1) In an effort to explore the effect further, we have performed preliminary experiments on rats on the effects of the administration of either GLA, EPA or DHA with or without the so anti-oxidants vitamin E, vitamin C or TA. Each fatty acid was added to the food at 0.1% by weight for a period of two weeks. The diet also contained either no other added material (control) or 0.1% by weight of vitamin E, vitamin C or TA. After two weeks the animals were killed and the levels of the fatty acids or their immediate metabolites determined in plasma phospholipids and in red cell membrane phospholipids. […] We can therefore conclude that there is no effect of anti-oxidants per se on the metabolism of the GLA, EPA or DHA in this situation. Equally, there were no effects of TA on the plasma phospholipid fatty acid composition. In contrast, in each of the groups the concentrations of the relevant fatty acids in red cell phospholipids were increased by 10-20%.

[2] = system: red cell membrane phospholipids; assay: fatty acid levels in red cell membrane phospholipids of rats fed GLA, EPA or DHA with or without anti-oxidant; format: in vivo, rat; conditions: two weeks; for effect on levels of the fatty acids or their immediate metabolites in red cell membrane phospholipids: fatty acid (GLA, EPA or DHA) 0.1% by weight in food plus 0.1% by weight anti-oxidant, preliminary experiments
Protocol: as §1

[3] = system: nerve conduction; conditions: TA alone; Packer et al, pages 570-572; cited from earlier work
[4] = system: perineal branch of the sciatic nerve of rats made diabetic by streptozotocin; assay: motor nerve conduction velocity in streptozotocin diabetic rats; format: in vivo, rat; conditions: STZ diabetic Sprague Dawley rats; GLA approx. 20 mg/kg/daily in food, TA 20 mg/kg/day intraperitoneal; 2 weeks treatment starting 6 weeks after STZ
From the text: (§2) Initial experimental evidence was obtained by studying rats made diabetic by the administration of streptozotocin. In such animal, complications resembling human complications of diabetes develop, and are characterised by reduction in conduction velocity to of impulses along the sciatic nerve and reduction in blood flow to the sciatic nerve. The reduction in blood flow is particularly important and is likely to be relevant to many complications of diabetes including retinopathy, nephropathy macrovascular arterial disease of the heart and peripheral arteries, impotence and leg ulceration. It may also be relevant to many of the other conditions in which essential fatty acids are useful treatments, including the inflammatory disorders. Five groups of animals given streptozotocin (STZ) were tested. They were accepted into the study only if they developed unequivocal elevation of blood glucose after the STZ. Ten animals acted as normal controls. […] The animals were left for 6 weeks after the STZ to allow the nerve damage to develop and were then given treatment with nothing or with GLA or TA or both together for 2 weeks At the end of the two weeks, the animals were anaesthetised and the motor nerve conduction velocity measured in the perineal branch of the sciatic nerve. Sciatic nerve blood flow was also measured by microelectrode polarography hydrogen clearance

[5] = system: sciatic nerve of rats made diabetic by streptozotocin; assay: sciatic nerve blood flow by microelectrode polarography hydrogen clearance in streptozotocin diabetic rats; format: in vivo, rat; conditions: STZ diabetic Sprague Dawley rats; GLA approx. 20 mg/kg/daily in food, TA 20 mg/kg/day intraperitoneal; 2 weeks treatment starting 6 weeks after STZ
From the text: as §2

[6] = system: atopic eczema, breast pain, rheumatoid arthritis and cardiovascular disease; assay: clinical studies of GLA with co-administration of vitamin E; format: in vivo, human
From the text: (§3) The results with EFA's and their synergistic effects with TA were completely unexpected and we decided to investigate them further. Vitamin E, like TA, is a lipophilic antioxidant and is one which is generally regarded as being physiologically more important than TA.

[7] = system: animals with diabetes; assay: vitamin E administered together with GLA in animals with diabetes; format: in vivo
From the text: as §3

| Compound | effect on levels of the fatty acids or their immediate metabolites in plasma phospholipids [1] | effect on levels of the fatty acids or their immediate metabolites in red cell membrane phospholipids [2] | effect on nerve conduction [3] | motor nerve conduction velocity [4] | increase of concentrations of the relevant fatty acids in red cell phospholipids ([2]; GLA, EPA or DHA 0.1% by weight in food plus 0.1% by weight TA, versus control without TA) | total nerve blood flow [5] | enhancement of the effects of GLA in clinical studies [6] | enhancement of the effect of GLA [7] |
| --- | --- | --- | --- | --- | --- | --- | --- | --- |
| O=C1O[C@H]([C@@H](O)CO)C(O)=C1O [vitamin C] | Neither vitamin E nor vitamin C had any effects | Neither vitamin E nor vitamin C had any effects | – | – | – | – | – | – |
| O=C(O)CCCCC1CCSS1 (stereo not drawn) [TA, α-lipoic acid] | no effects | – | absence of effect | little effect alone; also recorded: small improvements | 10-20% | little effect alone; also recorded: small improvements | – | – |
| CCCCC/C=C\C/C=C\C/C=C\CCCCC(=O)O [GLA, Gamma-linolenic acid] | – | – | – | little effect alone; also recorded: small improvements | – | little effect alone; also recorded: small improvements | – | – |
| vitamin E | Neither vitamin E nor vitamin C had any effects | Neither vitamin E nor vitamin C had any effects | – | – | – | – | not enhanced | no enhancement at all |
